Test results as given in PubChem BioAssay (NCI).
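Each compound was tested at five concentrations against cells in 96-well plates for 48 hours. GI50 marks 50% less growth. TGI denotes the concentration required for complete inhibition of growth.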

What was measured:
Experiment in all cases: inhibition of tumour cell growth, NCI panel, 48 h
HS 578T breast = tested on: HS 578T breast
HOP-92 NSCLC = tested on: HOP-92 NSCLC
ACHN renal = tested on: ACHN renal
MALME-3M melanoma = tested on: MALME-3M melanoma
U251 CNS = tested on: U251 CNS
M14 melanoma = tested on: M14 melanoma
IGROV1 ovarian = tested on: IGROV1 ovarian
SNB-19 CNS = tested on: SNB-19 CNS
786-0 renal = tested on: 786-0 renal
UACC-62 melanoma = tested on: UACC-62 melanoma

| Structure (SMILES) | TGI (HS 578T breast) | TGI (HOP-92 NSCLC) | TGI (ACHN renal) | TGI (MALME-3M melanoma) | TGI (U251 CNS) | TGI (M14 melanoma) | TGI (IGROV1 ovarian) | TGI (SNB-19 CNS) | TGI (786-0 renal) | TGI (UACC-62 melanoma) | GI50 (HS 578T breast) | GI50 (HOP-92 NSCLC) | GI50 (ACHN renal) | GI50 (MALME-3M melanoma) | GI50 (U251 CNS) | GI50 (M14 melanoma) | GI50 (IGROV1 ovarian) | GI50 (SNB-19 CNS) | GI50 (786-0 renal) | GI50 (UACC-62 melanoma) |
| --- | --- | --- | --- | --- | --- | --- | --- | --- | --- | --- | --- | --- | --- | --- | --- | --- | --- | --- | --- | --- |
| COc1cc(Oc2c(C)c(Cl)c(OC)c(Cl)c2OC)c2c(c1Cl)COC2=O | > 100 µM | > 100 µM | 62.9 µM | > 100 µM | > 100 µM | > 100 µM | > 100 µM | > 100 µM | 68.4 µM | > 100 µM |  |  |  |  |  |  |  |  |  |  |
| CCCCCCCCCCCCCCCCCc1nccn1CCOCCO | 12.7 µg/mL | 7.98 µg/mL | 11.1 µg/mL | 13.2 µg/mL | 9.62 µg/mL | 13 µg/mL | 13.2 µg/mL | 10.3 µg/mL | 11.7 µg/mL | 9.87 µg/mL | 5.34 µg/mL | 2.33 µg/mL | 5.95 µg/mL | 6.5 µg/mL | 4.52 µg/mL | 6.69 µg/mL | 6.03 µg/mL | 5.03 µg/mL | 6.19 µg/mL | 4.99 µg/mL |
| COc1ccc(C#Cc2ccc(=O)oc2-c2cc(OC)c(OC)c(OC)c2)cc1O | > 81.9 µM | 38.8 µM | > 100 µM | > 83.7 µM | > 100 µM | > 51.6 µM | 6.75 µM | > 100 µM | > 33.2 µM | > 100 µM | 7.4 µM | 0.575 µM | 17.2 µM | 10.2 µM | 5.4 µM | 4.33 µM | 1.02 µM | 18 µM | 5.49 µM | 5.53 µM |
| O=C(CC1(O)C(=O)N(Cc2ccccc2)c2ccc(Cl)cc21)c1ccc(C(=O)NCC2CCC3(CC2)OOC2(CCCCC2)OO3)cc1 (stereo not given) | 11.6 µM | 0.402 µM | 0.357 µM | 0.537 µM | 0.426 µM | 17.3 µM | 0.444 µM | > 100 µM | 0.367 µM | 77.7 µM | 2.11 µM | 0.214 µM | 0.18 µM | 0.209 µM | 0.211 µM | 2.52 µM | 0.197 µM | 5.34 µM | 0.192 µM | 6.26 µM |
| Cn1c(=O)c(Oc2ccc(F)cc2F)cc2cnc(NC(C)(C)CO)nc21 | > 25 µM | > 25 µM | > 25 µM | > 25 µM | > 25 µM | > 25 µM | > 25 µM | > 25 µM | > 25 µM | > 25 µM | > 25 µM | 7.44 µM | > 25 µM | > 25 µM | > 25 µM | > 25 µM | > 25 µM | > 25 µM | > 25 µM | > 25 µM |
| Oc1ccc(Nc2ccc3ccccc3c2)cc1 | 57.1 µM | 32.6 µM | 15.6 µM | 13.4 µM | 23.9 µM | 23.4 µM | 18 µM | > 100 µM | 15.5 µM | 18 µM | 12.1 µM | 10.2 µM | 2.46 µM | 3.45 µM | 4.83 µM | 5.01 µM | 3.75 µM | 20.4 µM | 3.78 µM | 3.96 µM |
| N#Cc1c(NCc2ccccc2)nc(NCc2ccccc2)c(C#N)c1-c1ccc(O)cc1 | > 100 µM | 7.96 µM | 57.1 µM | 68.5 µM | 54.5 µM | > 100 µM | 74.8 µM | > 100 µM | > 100 µM | > 100 µM | 22.9 µM | 0.316 µM | 16.9 µM | 29.5 µM | 19.2 µM | 29.9 µM | 23.5 µM | 50.5 µM | 23 µM | 21.5 µM |
| COC1C(O)CC(OC2CC(OC3CC(O[C@@H]4C(=O)c5c(cc6cc(OC7CC(OC8CC(O)C(O)C(C)O8)C(O)C(C)O7)c(C)c(O)c6c5O)CC4[C@H](OC)C(=O)O)OC(C)C3O)OC(C)C2O)OC1C (stereo not given in full) | > 33.3 µM | > 33.3 µM | > 33.3 µM | 28.6 µM | > 33.3 µM | > 33.3 µM | > 33.3 µM | > 33.3 µM | > 33.3 µM | 2.54 µM | 1.93 µM | 4.4 µM | 1.09 µM | 2.37 µM | 1.53 µM | 3.14 µM | 1.76 µM | 1.68 µM | 2.1 µM | 0.842 µM |
| O=c1[nH]c2ccccc2c2nc3ccccc3n12 | > 100 µM | > 100 µM | > 100 µM | 72.7 µM | > 100 µM | > 100 µM | > 100 µM | > 100 µM | > 100 µM | > 100 µM |  |  |  |  |  |  |  |  |  |  |
| BrC(Br)=C1C(=C(Br)Br)C(Br)C1Br (stereo not given) | 23.3 µM | 2.96 µM | 1.49 µM | 1.59 µM | 2.69 µM | 0.592 µM | 5.68 µM | 15.5 µM | 0.882 µM | 1.91 µM |  |  |  |  |  |  |  |  |  |  |
| C=C1C(=O)O[C@H]2[C@H]1CC/C(COC(=O)NCc1c[nH]c3ccccc13)=C\CC[C@@]1(C)O[C@@H]21 | 43.9 µM | 4.31 µM | 7.86 µM | 5.21 µM | 23.1 µM | 5 µM | 11.6 µM | 22.8 µM | 3.93 µM | 3.95 µM | 10.3 µM | 1.51 µM | 1.97 µM | 2.02 µM | 11.1 µM | 1.91 µM | 1.96 µM | 10.6 µM | 1.78 µM | 1.72 µM |
